Experimental data published in ChEMBL document CHEMBL5038635, “Discovery of Salidroside-Derivated Glycoside Analogues as Novel Angiogenesis Agents to Treat Diabetic Hind Limb Ischemia” (J Med Chem, 2022).
≈ marks a conversion by molar mass, not a printed value. Calls of active or inactive are those of the source. No cut-off for these calls is given here.

What was measured:
C2C12 [1] = experiment: Induction proliferation of mouse C2C12 cells assessed as increase in number of EdU-positive cells at 30 uM under normoglycemic condition by EdU-incorporation assay; format: functional, cell-based
C2C12 [2] = experiment: Reversal of cell migration in mouse C2C12 cells at 30 uM under hyperglycemic condition incubated for 24 hrs by crystal violet dye based transwell chamber assay; format: functional
C2C12 [3] = experiment: Effect on PHD2 mRNA expression in mouse C2C12 cells at 30 uM by qRT-PCR analysis; format: functional, cell-based
C2C12 [4] = experiment: Apoptotic rate in hyperglycemia-treated mouse C2C12 cells assessed as viable cells at 15 uM by AnnexinV-FITC/PI staining based flow cytometric analysis (reference value: 81.90 %); format: functional; details: read-out: Activity
[5] = Microsomal stability in rat liver microsomes assessed as compound remaining after 30 min by HPLC analysis; format: ADME, Microsome; details: read-out: Stability
C2C12 [6] = experiment: Apoptotic rate in mouse C2C12 cells with silenced HIF-1alpha assessed as viable cells at 30 uM by AnnexinV-FITC/PI staining based FACS analysis (reference value: 86.05 %); format: functional; details: read-out: Activity
C2C12 [7] = experiment: Reversal of hyperglycemia-induced PDGF-BB protein level reduction in mouse C2C12 cells measured at 30 uM by ELISA; format: functional, cell-based
Mus musculus [8] = experiment: Antidiabetic activity in diabetic HLI C57BL/6 mouse model assessed as increase in blood perfusion recovery at 30 mg/kg administered intramuscularly measured after 14 days; format: functional; details: time 14 day
C2C12 [9] = experiment: Reversal of hyperglycemia-induced VEGF-A protein level reduction in mouse C2C12 cells measured at 30 uM by ELISA; format: functional, cell-based
Mus musculus [10] = experiment: Angiogenic activity in diabetic HLI C57BL/6 mouse model assessed as VEGF-A protein expression at 30 mg/kg, im administered for 21 days followed by surgery by Western blot analysis; format: functional, organism-based; details: time 21.0 day
C2C12 [11] = experiment: Induction of proliferation of hyperglycemia-induced mouse C2C12 cell death assessed as increase in number of EdU-positive cells at 7.5 to 300 uM pretreated with compound under hyperglycemia condition for 12 hr followed by hypoxia for 24 hrs; format: functional, cell-based; details: dose 7.5-300 µM, time 36.0 hrs
C2C12 [12] = experiment: Apoptotic rate in hyperglycemia-treated mouse C2C12 cells assessed as early apoptotic cells at 15 uM by AnnexinV-FITC/PI staining based flow cytometric analysis (reference value: 7.10 %); format: functional
C2C12 [13] = experiment: Reversal of hyperglycemia-induced VEGF-A protein level reduction in mouse C2C12 cells measured at 30 uM by Western blot analysis; format: functional, cell-based
C2C12 [14] = experiment: Upregulation of PIK3CG protein expression in mouse C2C12 cells at 30 uM by Western blot analysis; format: functional, cell-based
C2C12 [15] = experiment: Angiogenic activity in mouse C2C12 cells assessed as accumulation VEGF-A protein expression at 300 uM by Western blot analysis; format: functional, cell-based
MOVAS-1 [16] = experiment: Angiogenesis activity in mouse MOVAS-1 assessed as increase of cell migration using conditioned medium of mouse C2C12 cells with silenced HIF-1alpha treated at 30 uM under hyperglycemic condition for 12 hrs followed by hypoxia for 24 hrs by crystal violet dye based transwell assay; format: functional; details: time 36.0 hrs
[17] = Metabolic stability in rat leg muscle homogenates assessed as compound remaining after 30 min by HPLC analysis; format: ADME, tissue-based, muscle of leg; details: read-out: Stability
C2C12 [18] = experiment: Upregulation of VEGF-A protein expression in mouse C2C12 cells at 30 uM by Western blot analysis; format: functional, cell-based
Mus musculus [19] = experiment: Angiogenic activity in diabetic HLI C57BL/6 mouse model assessed as increase in number of alpha-SMA-positive cells at 30 mg/kg, im administered for 21 days followed by surgery by immunofluorescence analysis; format: functional, organism-based; details: time 21.0 day
C2C12 [20] = experiment: Apoptotic rate in hyperglycemia-treated mouse C2C12 cells assessed as viable cells at 30 uM by AnnexinV-FITC/PI staining based flow cytometric analysis (reference value: 81.90 %); format: functional; details: read-out: Activity
Mus musculus [21] = experiment: Antidiabetic activity in diabetic HLI C57BL/6 mouse model assessed as increase in blood perfusion recovery at 30 mg/kg administered intramuscularly; format: functional, organism-based
C2C12 [22] = experiment: Angiogenic activity in mouse C2C12 cells assessed as accumulation ANG1 protein expression at 300 uM by Western blot analysis; format: functional, cell-based
[23] = Toxicity in diabetic HLI C57BL/6 mouse model assessed as kidney pathology at 30 mg/kg, IM administered by HE staining based assay; format: organism-based; details: in vivo
[24] = Efflux ratio of Apparent permeability across basolateral to apical side over apical to basolateral side in human Caco-2 cells
C2C12 [25] = experiment: Angiogenic activity in mouse C2C12 cells assessed as reversal of hyperglycemia-induced reduction in total cell number at 30 uM measured after 24 to 36 hrs by EdU-incorporation assay; format: functional, cell-based; details: time 24-36 hrs
[26] = Toxicity in diabetic HLI C57BL/6 mouse model assessed as liver pathology at 30 mg/kg, IM administered by HE staining based assay; format: organism-based; details: in vivo
MOVAS-1 [27] = experiment: Angiogenesis activity in mouse MOVAS-1 cells assessed as suppression of cell migration using conditioned medium of mouse C2C12 cells treated at 30 uM under hyperglycemic condition for 12 hrs followed by hypoxia for 24 hrs by crystal violet dye based transwell assay; format: functional; details: time 36.0 hrs
[28] = Water solubility of the compound by HPLC analysis
C2C12 [29] = experiment: Induction of cell migration in mouse C2C12 cells at 30 uM under hyperglycemic condition incubated for 24 hrs by crystal violet dye based transwell chamber assay; format: functional
HUVEC [30] = experiment: Angiogenesis activity in human HUVEC cells assessed as increase of cell migration using conditioned medium of mouse C2C12 cells with silenced HIF-1alpha treated at 30 uM under hyperglycemic condition for 12 hrs followed by hypoxia for 24 hrs by crystal violet dye based transwell assay; format: functional; details: time 36.0 hrs
HUVEC [31] = experiment: Induction proliferation of human HUVEC cells assessed as increase in number of EdU-positive cells using conditioned medium of mouse C2C12 cells with silenced HIF-1alpha treated at 30 uM under hyperglycemic condition for 12 hrs followed by hypoxia for 24 hrs in presence of VEGFR inhibitor Ki8751 by EdU-incorporation assay; format: functional, cell-based; details: time 36.0 hrs
C2C12 [32] = experiment: Angiogenic activity in mouse C2C12 cells assessed as reversal of hyperglycemia-induced reduction in total cell number at 7.5 uM measured after 24 hrs by EdU-incorporation assay; format: functional, cell-based
C2C12 [33] = experiment: Apoptotic rate in mouse C2C12 cells with silenced HIF-1alpha assessed as late apoptotic cells at 30 uM by AnnexinV-FITC/PI staining based FACS analysis (reference value: 9.62 %); format: functional
C2C12 [34] = experiment: Upregulation of CXCL17 protein expression in mouse C2C12 cells at 30 uM by Western blot analysis; format: functional, cell-based
HUVEC [35] = experiment: Antiangiogenesis activity in human HUVEC cells assessed as suppression of cell migration using conditioned medium of mouse C2C12 cells with silenced HIF-1alpha treated at 30 uM under hyperglycemic condition for 12 hrs followed by hypoxia for 24 hrs in presence of PDGF-BB inhibitor CP868596 by crystal violet dye based transwell assay; format: functional; details: time 36.0 hrs
C2C12 [36] = experiment: Upregulation of IGF protein expression in mouse C2C12 cells at 30 uM by Western blot analysis; format: functional, cell-based
[37] = Permeability coefficient across basolateral to apical side in human Caco-2 cells by HPLC-UV analysis

Q: With `COc1ccc(Cc2cccc(O[C@@H]3O[C@H](CO)[C@@H](O)[C@H](O)[C@H]3O)c2)cc1` as the compound, how does the Activity (C2C12 [1]) read?
A: Active

Q: And the Activity (C2C12 [2])?
A: Active

Q: What about the Activity (C2C12 [3]) of the same compound?
A: inactive

Q: What about the viability at 15 µM (C2C12 [4]) of the same compound?
A: 88.9%

Q: And the remaining at 0.5 h [5]?
A: 79.4%

Q: What about the viability at 30 µM (C2C12 [6]) of the same compound?
A: 82%

Q: What about the Activity (C2C12 [7]) of the same compound?
A: Active

Q: And the Activity (Mus musculus [8])?
A: 70%

Q: What about the Activity (C2C12 [9]) of the same compound?
A: Active

Q: And the Activity (Mus musculus [10])?
A: Active

Q: What about the Activity (C2C12 [11]) of the same compound?
A: Active

Q: What about the Activity (C2C12 [12]) of the same compound?
A: 3.14%

Q: What about the Activity (C2C12 [13]) of the same compound?
A: Active

Q: What about the Activity (C2C12 [14]) of the same compound?
A: Active

Q: What about the inhibition (C2C12 [15]) of the same compound?
A: Active

Q: What about the Activity (MOVAS-1 [16]) of the same compound?
A: Active

Q: What about the remaining at 0.5 h [17] of the same compound?
A: 99%

Q: And the Activity (C2C12 [18])?
A: Active

Q: What about the Activity (Mus musculus [19]) of the same compound?
A: Active

Q: And the viability at 30 µM (C2C12 [20])?
A: 93.6%

Q: What about the Activity (Mus musculus [21]) of the same compound?
A: Active

Q: And the inhibition (C2C12 [22])?
A: Active

Q: And the Activity [23]?
A: Non-Toxic

Q: And the efflux ratio [24]?
A: 1.07

Q: What about the Activity (C2C12 [25]) of the same compound?
A: inactive

Q: And the Activity [26]?
A: Non-Toxic

Q: What about the Activity (MOVAS-1 [27]) of the same compound?
A: Active

Q: And the solubility [28]?
A: 1910 µg/mL (≈ 5.07 mM)

Q: And the Activity (C2C12 [29])?
A: Active

Q: And the Activity (HUVEC [30])?
A: Active

Q: And the Activity (HUVEC [31])?
A: inactive

Q: And the Activity (C2C12 [32])?
A: Active

Q: What about the Activity (C2C12 [33]) of the same compound?
A: 14.63%

Q: What about the Activity (C2C12 [34]) of the same compound?
A: Active

Q: And the Activity (HUVEC [35])?
A: inactive

Q: What about the Activity (C2C12 [36]) of the same compound?
A: Active

Q: And the Papp B→A [37]?
A: 1.11 ×10⁻⁶ cm/s
